Test results as given in US20230407243A1, “GENETIC PLATFORM TO INVESTIGATE THE FUNCTIONS OF BACTERIAL DRUG EFFLUX PUMPS” (priority 2022, published 2023).
Like-named read-outs stand apart in the source and are kept apart here.

How the values were obtained:
Type in all cases: cell-based, Escherichia coli
[1] = tested on: wild-type E. coli K-12 str. BW25113; test: microbe, parasite or virus in culture; settings: technical duplicate; for MIC: Escherichia coli, BW25113
Procedure, shortened: (§1)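 MIC derived from pre-incubation-corrected OD600 after 18 h growth at 37° C. (900 rpm) in MHB II. Inoculum was cells from 18 h LB culture adjusted to OD600 ~1.0 in PBS, then diluted 1/2000; compounds two-fold serially titrated in duplicate, DMSO as solvent control.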

E. coli EKO-35 = test: microbe, parasite or virus in culture; settings: for Fold change of MICs: EKO-35 compared to EKO-35 (reference); for MIC: Escherichia coli, EKO35
Procedure, shortened: as §1

E. coli ΔtolC = test: microbe, parasite or virus in culture; settings: for Minimum inhibitory concentration (MIC), ΔtolC: Table 10, without pore
Procedure, shortened: as §1

EKO-35-Pore = test: MIC susceptibility profiling, porinated strain; settings: for Fold changes of MICs: EKO-35-Pore compared to EKO-35-Pore (reference); for MIC: Escherichia coli
Procedure, shortened: (§2)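 E. coli strains carrying a genomically integrated constitutive fhuA ΔC/Δ4L pore were grown 18 h in LB at 37 °C, then diluted 1/2000 in MHB II from OD600 ~1.0. Compounds were tested in duplicate, 2-fold serial titration, for 18 h at 37 °C with shaking. MIC came from OD600 with the pre-incubation background subtracted.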

[2] = tested on: EKO-35 araC::acrBD408A Pore; test: MIC susceptibility profiling, porinated efflux platform
Procedure, shortened: as §2

EKO-35 araC::emrKY Pore = test: as above
Procedure, shortened: as §2

EKO-35 araC::acrD Pore = test: as above
Procedure, shortened: as §2

EKO-35 araC::acrBD408A = test: MIC susceptibility profiling, efflux platform
Procedure, shortened: as §1

EKO-35 araC::mdtEF = test: MIC susceptibility profiling, efflux platform
Procedure, shortened: as §1

EKO-35 araC::acrD = test: MIC susceptibility profiling, efflux platform
Procedure, shortened: as §1

[3] = tested on: EKO-35 araC::mexCD (MexCD from P. aeruginosa); test: MIC susceptibility profiling, efflux platform
Procedure, shortened: as §1

EKO-35 araC::acrEF = test: MIC susceptibility profiling, efflux platform
Procedure, shortened: as §1

EKO-35 araC::mdtBC = test: MIC susceptibility profiling, efflux platform
Procedure, shortened: as §1

EKO-35 araC::acrB = test: MIC susceptibility profiling, efflux platform
Procedure, shortened: as §1

EKO-35 araC::emrAB = test: MIC susceptibility profiling, efflux platform
Procedure, shortened: as §1

EKO-35 araC::macAB = test: MIC susceptibility profiling, efflux platform
Procedure, shortened: as §1

EKO-35 araC::emrKY = test: MIC susceptibility profiling, efflux platform
Procedure, shortened: as §1

wild-type (WT) K-12-Pore = test: microbe, parasite or virus in culture; settings: technical duplicate; for MIC: Escherichia coli
Procedure, shortened: as §2

ΔtolC-Pore = test: microbe, parasite or virus in culture; settings: for Minimum inhibitory concentration (MIC), Pore ΔtolC: Table 10, with pore
Procedure, shortened: as §2

[4] = Table 13A, non-porinated, technical duplicate
[5] = Table 14A, porinated, technical duplicate
[6] = Table 13B, non-porinated, technical duplicate

CO[C@H]1/C=C/O[C@@]2(C)Oc3c(C)c(O)c4c(O)c(c(/C=N/N5CCN(C)CC5)c(O)c4c3C2=O)NC(=O)/C(C)=C\C=C\[C@H](C)[C@H](O)[C@@H](C)[C@@H](O)[C@@H](C)[C@H](OC(C)=O)[C@@H]1C [rifampicin]
MIC ([1]; Table 10, without pore, read-out: Minimum inhibitory concentration (MIC), K-12): 12.5 µg/mL | MIC ([1]; Table 13A, non-porinated, read-out: Minimum Inhibitory Concentration, K-12): 12.5 µg/mL | Fold change of MICs (E. coli EKO-35): 1 fold | MIC (E. coli EKO-35; Table 10, without pore, technical duplicate, read-out: Minimum inhibitory concentration (MIC), EKO-35): 6.25 µg/mL | MIC (E. coli EKO-35; Table 13A, non-porinated, technical duplicate, read-out: Minimum Inhibitory Concentration, EKO-35): 6.25 µg/mL | MIC (E. coli ΔtolC; Escherichia coli, 18 h, read-out: Minimum Inhibitory Concentration, ΔtolC): 6.25 µg/mL | Minimum inhibitory concentration (MIC), ΔtolC (E. coli ΔtolC; technical duplicate): 6.25 µg/mL | Fold changes of MICs (EKO-35-Pore): 1 fold | MIC (EKO-35-Pore; Table 10, with pore, technical duplicate, read-out: Minimum inhibitory concentration (MIC), Pore EKO-35): 0.391 µg/mL | MIC (EKO-35-Pore; Table 14A, porinated, technical duplicate, read-out: Minimum inhibitory concentration, EKO-35-Pore): 0.391 µg/mL | MIC ([2]; Escherichia coli, EKO-35 araC::acrBD408A Pore, technical duplicate, read-out: Minimum inhibitory concentration): 0.195 µg/mL | MIC (EKO-35 araC::emrKY Pore; Escherichia coli, EKO-35 araC::emrKY Pore, technical duplicate, read-out: Minimum inhibitory concentration): 0.391 µg/mL | MIC (EKO-35 araC::acrD Pore; Escherichia coli, Table 14A, porinated, technical duplicate, read-out: Minimum inhibitory concentration, EKO-35 araC::acrD Pore): 0.391 µg/mL | MIC (EKO-35 araC::acrBD408A; Escherichia coli, Table 13B, non-porinated, technical duplicate, read-out: Minimum Inhibitory Concentration, EKO-35 araC::acrBD408A): 3.12 µg/mL | MIC (EKO-35 araC::mdtEF; Escherichia coli, Table 13A, non-porinated, technical duplicate, read-out: Minimum Inhibitory Concentration, EKO-35 araC::mdtEF): 6.25 µg/mL | MIC (EKO-35 araC::acrD; Escherichia coli, Table 13A, non-porinated, technical duplicate, read-out: Minimum Inhibitory Concentration, EKO-35 araC::acrD): 6.25 µg/mL | MIC ([3]; Table 13B, non-porinated, technical duplicate, read-out: Minimum Inhibitory Concentration, EKO-35 araC::mexCD): 3.12 µg/mL | MIC (EKO-35 araC::acrEF; Escherichia coli, Table 13A, non-porinated, technical duplicate, read-out: Minimum Inhibitory Concentration, EKO-35 araC::acrEF): 6.25 µg/mL | MIC (EKO-35 araC::mdtBC; Escherichia coli, Table 13B, non-porinated, technical duplicate, read-out: Minimum Inhibitory Concentration, EKO-35 araC::mdtBC): 6.25 µg/mL | MIC (EKO-35 araC::acrB; Escherichia coli, Table 13A, non-porinated, technical duplicate, read-out: Minimum Inhibitory Concentration, EKO-35 araC::acrB): 6.25 µg/mL | MIC (EKO-35 araC::emrAB; Escherichia coli, Table 13B, non-porinated, technical duplicate, read-out: Minimum Inhibitory Concentration, EKO-35 araC::emrAB): 6.25 µg/mL | MIC (EKO-35 araC::macAB; Escherichia coli, Table 13B, non-porinated, technical duplicate, read-out: Minimum Inhibitory Concentration, EKO-35 araC::macAB): 6.25 µg/mL | MIC (EKO-35 araC::emrKY; Escherichia coli, Table 13B, non-porinated, technical duplicate, read-out: Minimum Inhibitory Concentration, EKO-35 araC::emrKY): 6.25 µg/mL | MIC (wild-type (WT) K-12-Pore; Table 10, with pore, read-out: Minimum inhibitory concentration (MIC), Pore K-12): 0.781 µg/mL | MIC (wild-type (WT) K-12-Pore; Table 14A, porinated, read-out: Minimum inhibitory concentration, K-12 (WT)-Pore): 0.781 µg/mL | MIC (ΔtolC-Pore; Escherichia coli, 18 h, read-out: Minimum inhibitory concentration, ΔtolC-Pore): 0.391 µg/mL | Minimum inhibitory concentration (MIC), Pore ΔtolC (ΔtolC-Pore; technical duplicate): 0.391 µg/mL

C[C@H](CCC(=O)NCCS(=O)(=O)[O-])[C@H]1CC[C@H]2[C@@H]3CC[C@@H]4C[C@H](O)CC[C@]4(C)[C@H]3C[C@H](O)[C@]12C.[Na+] [sodium taurodeoxycholate]
Minimum inhibitory concentration (MIC), K-12 ([1]; Table 10, without pore): 1000 µg/mL | Minimum Inhibitory Concentration, K-12 ([1]; Table 13A, non-porinated): 1000 µg/mL | Fold change of MICs (E. coli EKO-35): 1 fold | Minimum inhibitory concentration (MIC), EKO-35 (E. coli EKO-35; Table 10, without pore, technical duplicate): 500 µg/mL | Minimum Inhibitory Concentration, EKO-35 (E. coli EKO-35; [4]): 500 µg/mL | Minimum inhibitory concentration (MIC), ΔtolC (E. coli ΔtolC; technical duplicate): 250 µg/mL | Minimum Inhibitory Concentration, ΔtolC (E. coli ΔtolC; [4]): 250 µg/mL | Fold changes of MICs (EKO-35-Pore): 1 fold | Minimum inhibitory concentration (MIC), Pore EKO-35 (EKO-35-Pore; Table 10, with pore, technical duplicate): 250 µg/mL | Minimum inhibitory concentration, EKO-35-Pore (EKO-35-Pore; [5]): 250 µg/mL | Fold changes of MICs ([2]; EKO-35 araC::acrBD408A Pore compared to EKO-35-Pore): 1 fold | Minimum inhibitory concentration ([2]; EKO-35 araC::acrBD408A Pore, technical duplicate): 250 µg/mL | Fold changes of MICs (EKO-35 araC::emrKY Pore; EKO-35 araC::emrKY Pore compared to EKO-35-Pore): 1 fold | Minimum inhibitory concentration (EKO-35 araC::emrKY Pore; EKO-35 araC::emrKY Pore, technical duplicate): 250 µg/mL | Fold changes of MICs (EKO-35 araC::acrD Pore; EKO-35 araC::acrD Pore compared to EKO-35-Pore): 4 fold | Minimum inhibitory concentration, EKO-35 araC::acrD Pore (EKO-35 araC::acrD Pore; [5]): 1000 µg/mL | Fold change of MICs (EKO-35 araC::acrBD408A; EKO-35 araC::acrBD408A compared to EKO-35): 2 fold | Minimum Inhibitory Concentration, EKO-35 araC::acrBD408A (EKO-35 araC::acrBD408A; [6]): 1000 µg/mL | Fold change of MICs (EKO-35 araC::mdtEF; EKO-35 araC::mdtEF compared to EKO-35): 2 fold | Minimum Inhibitory Concentration, EKO-35 araC::mdtEF (EKO-35 araC::mdtEF; [4]): 1000 µg/mL | Fold change of MICs (EKO-35 araC::acrD; EKO-35 araC::acrD compared to EKO-35): 2 fold | Minimum Inhibitory Concentration, EKO-35 araC::acrD (EKO-35 araC::acrD; [4]): 1000 µg/mL | Fold change of MICs ([3]; EKO-35 araC::mexCD compared to EKO-35): 2 fold | Minimum Inhibitory Concentration, EKO-35 araC::mexCD [3, 6]: 1000 µg/mL | Fold change of MICs (EKO-35 araC::acrEF; EKO-35 araC::acrEF compared to EKO-35): 2 fold | Minimum Inhibitory Concentration, EKO-35 araC::acrEF (EKO-35 araC::acrEF; [4]): 1000 µg/mL | Fold change of MICs (EKO-35 araC::mdtBC; EKO-35 araC::mdtBC compared to EKO-35): 2 fold | Minimum Inhibitory Concentration, EKO-35 araC::mdtBC (EKO-35 araC::mdtBC; [6]): 1000 µg/mL | Fold change of MICs (EKO-35 araC::acrB; EKO-35 araC::acrB compared to EKO-35): 2 fold | Minimum Inhibitory Concentration, EKO-35 araC::acrB (EKO-35 araC::acrB; [4]): 1000 µg/mL | Fold change of MICs (EKO-35 araC::emrAB; EKO-35 araC::emrAB compared to EKO-35): 2 fold | Minimum Inhibitory Concentration, EKO-35 araC::emrAB (EKO-35 araC::emrAB; [6]): 1000 µg/mL | Fold change of MICs (EKO-35 araC::macAB; EKO-35 araC::macAB compared to EKO-35): 1 fold | Minimum Inhibitory Concentration, EKO-35 araC::macAB (EKO-35 araC::macAB; [6]): 250 µg/mL | Fold change of MICs (EKO-35 araC::emrKY; EKO-35 araC::emrKY compared to EKO-35): 1 fold | Minimum Inhibitory Concentration, EKO-35 araC::emrKY (EKO-35 araC::emrKY; [6]): 500 µg/mL | Minimum inhibitory concentration (MIC), Pore K-12 (wild-type (WT) K-12-Pore; Table 10, with pore): 1000 µg/mL | Minimum inhibitory concentration, K-12 (WT)-Pore (wild-type (WT) K-12-Pore; Table 14A, porinated): 1000 µg/mL | Minimum inhibitory concentration (MIC), Pore ΔtolC (ΔtolC-Pore; technical duplicate): 250 µg/mL | Minimum inhibitory concentration, ΔtolC-Pore (ΔtolC-Pore; [5]): 250 µg/mL
